In US12521356B2, “Compositions and methods for treating pain, inflammation, infection, malaria, and sepsis” (Duke University, priority 2018, dated 2026):

How the values were obtained:
Type in all cases: cell-based
ChemR23 = target: T1, ChemR23 (Homo sapiens, UniProt Q99788); assay: Ca2+ imaging (Fura-2AM) in HEK293 cells transfected with ChemR23 cDNA; conditions: HEK293 cells expressing ChemR23; RvE1 100 nM
T1 construct: host or cells: HEK293 flip-in cells
T1 sequence (Q99788 1-373): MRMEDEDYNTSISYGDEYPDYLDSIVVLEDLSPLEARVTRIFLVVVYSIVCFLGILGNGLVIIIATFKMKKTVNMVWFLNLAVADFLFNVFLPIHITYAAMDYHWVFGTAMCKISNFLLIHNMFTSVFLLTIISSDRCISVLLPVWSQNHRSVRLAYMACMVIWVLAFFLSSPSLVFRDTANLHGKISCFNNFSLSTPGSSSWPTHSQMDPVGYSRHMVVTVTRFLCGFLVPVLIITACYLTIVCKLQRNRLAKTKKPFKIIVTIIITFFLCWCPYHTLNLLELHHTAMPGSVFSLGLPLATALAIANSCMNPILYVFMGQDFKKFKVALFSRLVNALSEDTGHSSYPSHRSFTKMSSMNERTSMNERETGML
Excerpt: (§1) FIG. 10A-FIG. 10C. Characterization of intracellular Ca^2+ changes in HEK293 cells expressing ChemR23, GPR32, and ALX. Ca^2+ imaging with Fura-2AM indicator showing iCa^2+ levels in HEK293 cells transfected with ChemR23 (FIG. 10A), GPR32 (FIG. 10B), and ALX (FIG. 10C) cDNAs. Note that NPD1 fails to elicit iCa^2+ increase in HEK293 cells expressing ChemR23, GPR32, and ALX. […] ATP is included as a positive control. *P<0.05, compared with baseline n=44˜97 cells from 3 cultures. All the data are expressed as mean±s.e.m.
(§2) HEK cell culture and transfection. HEK293 flip-in cell line was purchased from Duke Cell Culture Facility. Cells were cultured in high glucose (4.5 g/L) Dulbecco's Modified Eagle's Medium containing 10% (v/v) fetal bovine serum (Gibco). Transfection (2 μg cDNA) was performed with Lonza electroporation (Lonza) at 70% confluency and the transfected cells were cultured in the same growth medium for 48 h before use. The hGPR37-V5 pLenti304 plasmids were obtained from DNASU (Tempe, AZ), and hGPR32, hChemR23 and hALX pcDNA3 plasmids were provided by Dr. Serhan from Harvard Medical School, Boston.
(§3) Calcium imaging. HEK 293 cells, with or without transfection of Gpr37, GPR32, ChemR23 or ALX1 cDNA, were loaded with 5 μM Fura-2AM (Invitrogen) for 1 hour and then were resuspended in normal external buffer (140 NaCl, 5 KCl, 2 CaCl2, 2 MgCl2, 10 HEPES, in mM, titrated to pH 7.4 with NaOH) or external Ca^2+-free buffer (140 NaCl, 2 MgCl2, 5 EGTA, 10 HEPES, in mM, titrated to pH 7.4 with NaOH). Peritoneal macrophages, collected from WT and Gpr37 KO mice, were loaded with 5 μM Fura-4AM (Invitrogen) for 1 hour and then were resuspended in normal external buffer. Images of the HEK 293 cells and macrophages with the excitation wavelength of 340 nm and 380 nm were captured with a cooled Digital CMOS camera (ORCA-Flash 4.0, Hamamatsu Photonics K.K, Japan). The ratio of fluorescence intensity of the two wavelengths in each experiment was analyzed using MetaFluor (Molecular Devices). The Shutter speed and wavelength was controlled by Lambda DG-4 system (Sutter instrument Co., Novato, CA). […]

GPR37 = target: T2, GPR37 (Mus musculus, UniProt Q9QY42); assay: Ca2+ imaging (Fluo-4AM) in peritoneal macrophages (pMΦ) from WT and Gpr37−/− mice; conditions: for iCa2+ levels: 100 nM
T2 sequence (Q9QY42 27-600): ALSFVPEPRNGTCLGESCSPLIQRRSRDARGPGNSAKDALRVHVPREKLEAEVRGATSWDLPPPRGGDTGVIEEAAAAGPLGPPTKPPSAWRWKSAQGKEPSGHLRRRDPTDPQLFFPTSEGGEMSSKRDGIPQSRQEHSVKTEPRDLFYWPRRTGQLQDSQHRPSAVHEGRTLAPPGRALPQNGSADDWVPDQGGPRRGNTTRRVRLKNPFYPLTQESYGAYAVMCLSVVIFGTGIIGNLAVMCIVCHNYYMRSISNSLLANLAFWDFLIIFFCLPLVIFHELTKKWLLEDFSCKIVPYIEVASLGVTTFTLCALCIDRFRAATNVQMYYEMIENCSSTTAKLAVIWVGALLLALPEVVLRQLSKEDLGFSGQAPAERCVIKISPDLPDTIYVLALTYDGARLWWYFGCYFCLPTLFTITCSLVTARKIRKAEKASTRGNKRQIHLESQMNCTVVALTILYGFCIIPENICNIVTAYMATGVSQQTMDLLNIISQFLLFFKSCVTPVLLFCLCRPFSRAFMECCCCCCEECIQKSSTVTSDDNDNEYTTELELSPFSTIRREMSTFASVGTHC
Description: Peritoneal macrophage culture. Peritoneal macrophages were collected by peritoneal lavage with 10 ml warm PBS containing of 1 mM EDTA. Cells were incubated in DMEM supplemented with 10% FBS at 37° C. for 2 h in petri dish and washed with PBS to eliminate non-adherent cells. The adherent cells were used as peritoneal macrophages. Peritoneal macrophages were used after 3 days of culture.
Calcium imaging. HEK 293 cells, with or without transfection of Gpr37, GPR32, ChemR23 or ALX1 cDNA, were loaded with 5 μM Fura-2AM (Invitrogen) for 1 hour and then were resuspended in normal external buffer (140 NaCl, 5 KCl, 2 CaCl2, 2 MgCl2, 10 HEPES, in mM, titrated to pH 7.4 with NaOH) or external Ca^2+-free buffer (140 NaCl, 2 MgCl2, 5 EGTA, 10 HEPES, in mM, titrated to pH 7.4 with NaOH). Peritoneal macrophages, collected from WT and Gpr37 KO mice, were loaded with 5 μM […] (Invitrogen) for 1 hour and then were resuspended in normal external buffer. Images of the HEK 293 cells and macrophages with the excitation wavelength of 340 nm and 380 nm were captured with a cooled Digital CMOS camera (ORCA-Flash 4.0, Hamamatsu Photonics K.K, Japan). The ratio of fluorescence intensity of the two wavelengths in each experiment was analyzed using MetaFluor (Molecular Devices). The Shutter speed and wavelength was controlled by Lambda DG-4 system (Sutter instrument Co., Novato, CA). Values from each of the experiments were normalized to the baseline ratio of 340/380 nm.
Next, we conducted GPR37-mediated Ca^2+ imaging in native pMΦ from WT and Gpr37^−/− mice using Fluo-4AM as a Ca^2+ indicator, since this dye works better than Fura-2AM for pMΦ. […] As compared to iCa^2+ increase in GPR37-expressing HEK293 cells, NPD1 trigger a slow-onset but more persistent Ca^2+ response in pMΦ (FIG. 2B and FIG. 2G). A relatively rapid calcium response in HEK293 cells may result from over-expression of GPR37. A sustained iCa^2+ increase in pMΦ may result from the expression of transient receptor potential (TRP) ion channels in these immune cells. It is noteworthy that macrophages express TRPV2 or TRPM2, which are involved in phagocytosis during bacterial infection. […] NPD1-triggered iCa^2+ increase in pMΦ is also Gi-dependent, since PTX blocked this increase (FIG. 2H). For comparison, ATP-evoked iCa^2+ increase was not altered in GPR37-deficient pMΦ (FIG. 2H).

GPR32 = target: T3, GPR32 (Homo sapiens, UniProt O75388); assay: Ca2+ imaging (Fura-2AM) in HEK293 cells transfected with GPR32 cDNA; conditions: HEK293 cells expressing GPR32; RvD1 100 nM
T3 construct: host or cells: HEK293 flip-in cells
T3 sequence (O75388 whole entry): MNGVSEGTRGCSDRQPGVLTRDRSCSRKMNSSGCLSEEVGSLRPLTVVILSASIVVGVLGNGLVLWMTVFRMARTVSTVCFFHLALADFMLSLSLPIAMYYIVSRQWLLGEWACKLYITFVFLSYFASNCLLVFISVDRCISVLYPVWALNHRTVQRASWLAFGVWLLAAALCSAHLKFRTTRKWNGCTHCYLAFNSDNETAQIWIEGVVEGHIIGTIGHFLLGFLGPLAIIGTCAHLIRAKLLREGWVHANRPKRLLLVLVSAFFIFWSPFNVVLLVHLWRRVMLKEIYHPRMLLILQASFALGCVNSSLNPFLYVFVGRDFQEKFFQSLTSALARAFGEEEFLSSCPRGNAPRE
Excerpt: as §1, §2, §3

| Structure (SMILES) | iCa2+ increase / Ca2+ response (ChemR23) | iCa2+ levels (GPR37; pMΦ) | iCa2+ increase / Ca2+ response (GPR32) | iCa2+ increase (GPR37; 30 nM, WT pMΦ) | EC50 (GPR37; pMΦ, dose response, read-out: EC50 of iCa2+ increase) [µM] |
| --- | --- | --- | --- | --- | --- |
| CC[C@@H](O)/C=C/C=C\C[C@@H](O)/C=C/C=C/C=C\[C@@H](O)CCCC(=O)O [RvE1] | failed to evoke Ca^2+ responses | did not alter iCa^2+ levels | – | – | – |
| CC/C=C\C[C@H](O)/C=C/C=C\C=C\C=C\[C@@H](O)[C@@H](O)C/C=C\CCC(=O)O [RvD1] | – | did not alter iCa^2+ levels | failed to evoke Ca^2+ responses | – | – |
| CC/C=C\C[C@H](O)\C=C/C=C/C=C/[C@H](O)C/C=C\C/C=C\CCC(=O)O [NPD1, neuroprotectin D1] | failed to elicit iCa^2+ increase | – | failed to elicit iCa^2+ increase | robust and sustained iCa^2+ increase | 0.0195 |
